Values quoted from earlier work, collected in patent US20250228849A1, “FORMULATION AND MANUFACTURING PROCESS OF LIQUID FORMULATION OF RILPIVIRINE” (Aptorum Therapeutics Limited, priority 2024, published 2025).
Read-outs that look alike come from different tables or passages of the source.

How the values were obtained:
[1] = pyrimidine nitrogen
[2] = hydrochloride salt form

pKa [1] | solubility (in DMSO) | solubility (in ethanol) | solubility (in methanol) | solubility (in water) | BCS class [2] | SMILES
approximately 5.6 | moderately soluble | moderately soluble | moderately soluble | merely sparing solubility | BCS Class II | Cc1cc(C=CC#N)cc(C)c1Nc1ccnc(Nc2ccc(C#N)cc2)n1.Cl [Rilpivirine hydrochloride, 4-[[4-[[4-(2-cyanovinyl)-2,6-dimethylphenyl]amino]pyrimidin-2-yl]amino]benzonitrile hydrochloride]
 |  |  |  | low aqueous solubility |  | Cc1cc(/C=C/C#N)cc(C)c1Nc1ccnc(Nc2ccc(C#N)cc2)n1 [rilpivirine]
